Results on 6 molecules are retold here after patent US5298521A, “1,5-diphenyl-3-pyrazolylalkyl-N-hydroxydithiocaramates, compositions and use” (Ortho Pharmaceutical Corporation, priority 1993, dated 1994).

Where two headings read alike, the source gives them in different places.

One assay concerns CO in intact RBL-1 cells. Kind of assay: CO inhibition in intact RBL-1 cells (Procedure III). As to conditions: superscript = number of experiments, read-out: PROC. III IC50 CO. The class given is cell-based, rat. On the procedure: The ability to inhibit 5-LO and CO in intact RBL-1 cells was also evaluated. RBL-1 cells were maintained in culture in minimal essential medium (Bio*Whittaker, Walkersville, MD), containing 12.5% fetal calf serum, 10 mg/mL streptomycin, 10 I.U./mL penicillin G, […] gentamycin and 2 mM L-glutamine (Bio*Whittaker, Walkersville, MD). Cells were collected by centrifugation, washed once in HBSS, and resuspended at a concentration of 1×10^5 cells/mL. Cells were incubated in the presence of vehicle or drug then centrifuged at 800×g for 10 minutes at 4° C. The supernatant was removed by aspiration and the cells were resuspended in 0.5 mL of HBSS. The reaction was started by the addition of 20 μg/mL of calcium ionophore A-23187 (mixed calcium and magnesium salts, Calbiochem, La Jolla CA) and allowed to proceed for 15 minutes, then stopped by plunging the tubes into a slush ice bath. The conversion of AA to 5-LO products was initiated by the addition of 10 μL (50 uCi) of 1-^14 C-AA. Products were isolated by acidification and extraction, followed by thin layer chromatography analysis as described above. Radioactive areas corresponding to authentic 5-LO and CO products were quantitated by the Bioscan 2000 Imaging System.

The subject of a further assay is CO. Kind of assay: Ex vivo eicosanoid synthesis in dog whole blood, CO (prostaglandin F2α or TxB2) (Procedure IV). The note with it: Canis lupus familiaris, oral, read-out: PROC. IV % INHIB/HOURS CO; for inhibition at 5 mg/kg: 5 MPK. How it is done:
(§1) Ex Vivo eicosanoid synthesis in dog whole blood. Adult beagle or mongrel dogs (10-15 kg) of either sex were fasted overnight prior to the initiation of each experiment. The forelimb was clipped and swabbed with an alcohol prep (70% isopropanol). Blood was drawn by venipuncture into syringes containing lithium heparin (Starstead, Newton NC) immediately prior to administration of compound or vehicle and then at various intervals following dosing. The test compound was administered orally as a suspension in 0.5% methocel. At various times after dosing, blood samples were drawn and placed on an electric rocker platform to assure complete and continuous mixing. White blood cell (wbc) counts were performed using a Sysmex hematology analyzer. This was done in an effort to normalize the number of leukocytes to be stimulated with calcium ionophore. A 1.0 mL aliquot of whole blood was challenged with 50 μL of a 2.6×10^-5 M solution of calcium ionophore A23187 (Calbiochem, La Jolla, CA) prepared in DMSO and diluted in HBSS. After a 15 minute incubation at 37° C., the reaction was stopped by placing the samples in an ice bath (4° C.) for 5 minutes and then centrifuged at 11,000×g for 5 minutes to separate the plasma fraction from blood cells. The plasma fraction was removed, diluted in an appropriate buffer, and analyzed for the presence of LTB4 and prostaglandin F2α or TxB2 by standard RIA techniques. […]

The next assay relates to 5-LO. The assay is described as follows: Ex vivo eicosanoid synthesis in dog whole blood, 5-LO (LTB4) (Procedure IV). The note with it: Canis lupus familiaris, oral, read-out: PROC. IV % INHIB/HOURS 5-LO; for inhibition at 5 mg/kg: 5 MPK, 6 hours. How it is done:
as §1

`COc1ccc(-n2nc(CSC(=S)N(O)C(C)C)cc2-c2ccc(Cl)cc2)cc1` [1-B]: the IC50 (as a rule, the concentration that inhibits the measured activity by half) in the assay on CO in intact RBL-1 cells is 1.4 µM. The inhibition at 1 mg/kg in the assay with CO (1 MPK, 2 hours) was determined as 77%; in the assay with 5-LO (1 MPK, 2 hours), 36%. `COc1ccc(-n2nc(CSC(=S)N(C)O)c(Cl)c2-c2ccc(Cl)cc2)cc1` [1-C]: in the assay on CO in intact RBL-1 cells, the IC50 was found to be 2.4 µM. Take `COc1ccc(-n2nc(CSC(=S)N(O)C(C)C)c(Cl)c2-c2ccc(Cl)cc2)cc1` [1-D]: the inhibition at 5 mg/kg in the assay with CO (24 hours) stood at 32%; with 5-LO it was 2%. Regarding `COc1ccc(-n2nc(CSC(=S)N(O)C(C)C)c(Br)c2-c2ccc(Cl)cc2)cc1` [1-E], the IC50 in the assay with CO in intact RBL-1 cells turned out to be 6.5 µM. For the same molecule, the inhibition at 5 mg/kg was 31% in the assay with CO (6 hours) and 41% in the assay with 5-LO. Take `COc1ccc(-n2nc(CSC(=S)N(O)C(C)C)cc2-c2ccc(C)cc2)cc1` [1-G]: in the assay on CO in intact RBL-1 cells, the half-inhibitory concentration (IC50) stood at 0.18 µM. As for `COc1ccc(-n2nc(CSC(=S)N(C)O)c(Cl)c2-c2ccc(C)cc2)cc1` [1-H], the half-inhibitory concentration (IC50) in the assay with CO in intact RBL-1 cells worked out at 1.6 µM.
